Assay results published in paper PMC5863483, “Low HLA binding of diabetes-associated CD8+ T-cell epitopes is increased by post translational modifications” (BMC Immunology, 2018).
*1 amine or outer side, *2 acyl side, *3 side chain or, on linkers, in order; H or OH if unused. Where a SMILES comes first, the peptide text is derived from it. Where no end group is shown, it is not given here. [ ]: non-standard residue; d: D form. γGlu = O=C(O)[C@H](CCC(=O)[*:2])N[*:1]; βAsp = O=C(O)[C@H](CC(=O)[*:2])N[*:1]; Cya = N[C@@H](CS(=O)(=O)O)C(=O)O; Cit = NC(=O)NCCC[C@H](N)C(=O)O

Target: HLA-B*07:02 (Homo sapiens, UniProt P01889)
Assay: HLA-peptide competition binding assay, B*07:02
Settings: read-out: IC50 nM, target assay B*07:02

| Compound | IC50 |
| --- | --- |
| CC(C)C[C@H](NC(=O)[C@H](CCC(N)=O)NC(=O)[C@H](CC(N)=O)NC(=O)[C@H](Cc1ccccc1)NC(=O)[C@H](Cc1ccc(O)cc1)NC(=O)[C@H](CCCNC(=N)N)NC(=O)[C@@H]1CCCN1C(=O)[C@@H](N)Cc1c[nH]cn1)C(=O)N[C@@H](CO)C(=O)N[C@H](C(=O)O)[C@@H](C)O | 1250 nM |
| WMRLLPLLAL [WMRLLPLLAL, reference compound] | 2360 nM |
| SASVQRADTSL | 11 nM |

More lines, now with the values ahead:

| IC50 | Compound |
| --- | --- |
| 18200 nM | APVIKARMM |
| 3860 nM | IPSDLERRIL |

Target: HLA-A*03:01 (Homo sapiens, UniProt P04439)
Assay: HLA-peptide competition binding assay, A*03:01
Settings: not given

| Compound | IC50 |
| --- | --- |
| PLALEGSLQK | > 40000 nM |

Same assay, conditions: read-out: IC50 nM, target assay A*03:01

| IC50 | Compound |
| --- | --- |
| > 40000 nM | ERGFFYTPK [reference compound] |
| > 40000 nM | PLLALLALWG |
| > 40000 nM | SLQPLALEG [reference compound] |

Target: HLA-A*02:01 (Homo sapiens, UniProt P04439, D140Y/D185E/D98H/E176V/E277Q/G131W/G231S/I119V/I121R/I166T/I218V/L300P/L318F/N151K/N90K/P208A/P217A/Q86G/Q94H/R138H/R169H/T345S)
Assay: HLA-peptide competition binding assay, A*02:01
Settings: not given

| Compound | IC50 |
| --- | --- |
| WMRLLPLLAL [WMRLLPLLAL, reference compound] | 654 nM |
| CC(C)C[C@H](NC(=O)[C@H](C)N)C(=O)N[C@@H](Cc1ccc(O)cc1)C(=O)N[C@@H](CC(C)C)C(=O)N[C@H](C(=O)N[C@@H](CS)C(=O)NCC(=O)N[C@@H](CCC(=O)O)C(=O)N[C@@H](CCCNC(N)=O)C(=O)O)C(C)C | 1240 nM |
| SHLVEALYLV [reference compound] | 2150 nM |

Same assay, conditions: increase of A*02:01 binding of the modified peptide compared to the WT peptide

| Fold increase | Compound |
| --- | --- |
| 3.21 fold | CC(C)C[C@H](NC(=O)[C@H](C)N)C(=O)N[C@@H](Cc1ccc(O)c(Cl)c1)C(=O)N[C@@H](CC(C)C)C(=O)N[C@H](C(=O)N[C@@H](CS)C(=O)NCC(=O)N[C@@H](CCC(=O)O)C(=O)N[C@@H](CCCNC(=N)N)C(=O)NCC(=O)O)C(C)C [ALJLVCGERG] |

Same assay, conditions: post-translationally modified insulin peptide; competition binding assay; a dash indicates IC50 >40,000 nM; read-out: A*02:01 binding (IC50 nM) Modified

| Compound | IC50 |
| --- | --- |
| CC(C)C[C@H](NC(=O)[C@H](C)NC(=O)[C@H](CCC(=O)O)NC(=O)[C@@H](NC(=O)[C@H](CC(C)C)NC(=O)[C@H](Cc1c[nH]cn1)NC(=O)[C@H](CO)NC(=O)CNC(=O)[C@H](CS(=O)(=O)O)NC(=O)[C@@H](N)CC(C)C)C(C)C)C(=O)O [LBGSHLVEAL] (H-L[Cya]GSHLVEAL-OH; N-terminus and C-terminus assumed) | > 40000 nM |
| CC(C)C[C@H](N)C(=O)N[C@H](C(=O)N[C@@H](CS)C(=O)NCC(=O)N[C@@H](CCC(=O)O)C(=O)N[C@@H](CCCNC(N)=O)C(=O)NCC(=O)N[C@@H](Cc1ccccc1)C(=O)N[C@@H](Cc1ccccc1)C(=O)N[C@@H](Cc1ccc(O)cc1)C(=O)O)C(C)C (H-LVCGE[Cit]GFFY-OH; N-terminus and C-terminus assumed) | > 40000 nM |
| CC(C)C[C@H](NC(=O)[C@H](Cc1c[nH]cn1)NC(=O)CC[C@H](NC(=O)C[C@H](NC(=O)[C@@H](NC(=O)[C@@H](N)Cc1ccccc1)C(C)C)C(=O)O)C(=O)O)C(=O)N[C@@H](CS)C(=O)NCC(=O)N[C@@H](CO)C(=O)N[C@@H](Cc1c[nH]cn1)C(=O)O [FVOZHLCGSH] (H-FV[βAsp][γGlu]HLCGSH-OH; N-terminus and C-terminus assumed) | > 40000 nM |

The remaining lines, values ahead:

| IC50 | Compound |
| --- | --- |
| > 40000 nM | C[C@@H](O)[C@H](NC(=O)[C@H](CCCCN)NC(=O)[C@@H]1CCCN1C(=O)[C@@H](NC(=O)[C@H](Cc1ccc(O)cc1)NC(=O)[C@H](Cc1ccccc1)NC(=O)[C@@H](N)Cc1ccccc1)[C@@H](C)O)C(=O)N[C@@H](CCCNC(N)=O)C(=O)N[C@@H](CCCNC(N)=O)C(=O)O (H-FFYTPKT[Cit][Cit]-OH; N-terminus and C-terminus assumed) |
| > 40000 nM | ERGYFYTPK |
| > 40000 nM | CC(C)C[C@H](NC(=O)[C@H](CC(=O)O)NC(=O)[C@H](CCC(=O)O)NC(=O)[C@H](C)NC(=O)[C@H](CCC(=O)O)NC(=O)[C@@H](N)CCCNC(N)=O)C(=O)N[C@@H](CCC(N)=O)C(=O)N[C@H](C(=O)NCC(=O)N[C@@H](CCC(N)=O)C(=O)O)C(C)C (H-[Cit]EAEDLQVGQ-OH; N-terminus and C-terminus assumed) |
| > 40000 nM | CC(C)C[C@H](NC(=O)[C@H](CC(=O)O)NC(=O)[C@H](CCC(=O)O)NC(=O)[C@H](C)NC(=O)[C@H](CCC(=O)O)NC(=O)[C@H](CCCNC(N)=O)NC(=O)[C@H](CCCNC(N)=O)NC(=O)[C@@H](N)[C@@H](C)O)C(=O)N[C@@H](CCC(N)=O)C(=O)O (H-T[Cit][Cit]EAEDLQ-OH; N-terminus and C-terminus assumed) |
| > 40000 nM | CC(C)C[C@H](NC(=O)[C@H](Cc1c[nH]cn1)NC(=O)[C@H](CCC(N)=O)NC(=O)[C@H](CC(N)=O)NC(=O)[C@@H](NC(=O)[C@@H](N)Cc1ccccc1)C(C)C)C(=O)N[C@@H](CS(=O)(=O)O)C(=O)NCC(=O)N[C@@H](CO)C(=O)N[C@@H](Cc1c[nH]cn1)C(=O)O [FVNQHLBGSH] (H-FVNQHL[Cya]GSH-OH; N-terminus and C-terminus assumed) |
| > 40000 nM | CC(C)C[C@H](NC(=O)[C@H](Cc1c[nH]cn1)NC(=O)[C@H](CCC(N)=O)NC(=O)[C@H](CC(N)=O)NC(=O)[C@@H](N)C(C)C)C(=O)N[C@@H](CS(=O)(=O)O)C(=O)NCC(=O)N[C@@H](CO)C(=O)N[C@@H](Cc1c[nH]cn1)C(=O)O [VNQHLBGSH] (H-VNQHL[Cya]GSH-OH; N-terminus and C-terminus assumed) |
| > 40000 nM | EHLCGSHLVE |
| > 40000 nM | CC(C)C[C@H](N)C(=O)N[C@H](C(=O)N[C@@H](CS(=O)(=O)O)C(=O)NCC(=O)N[C@@H](CCC(=O)O)C(=O)N[C@@H](CCCNC(=N)N)C(=O)NCC(=O)N[C@@H](Cc1ccc(O)cc1)C(=O)N[C@@H](Cc1ccc(O)cc1)C(=O)N[C@@H](Cc1ccc(O)cc1)C(=O)O)C(C)C [LVBGERGYYY] (H-LV[Cya]GERGYYY-OH; N-terminus and C-terminus assumed) |
| > 40000 nM | CC(C)C[C@H](NC(=O)[C@H](Cc1c[nH]cn1)NC(=O)[C@H](CO)NC(=O)CNC(=O)[C@H](CS(=O)(=O)O)NC(=O)[C@H](CC(C)C)NC(=O)[C@H](Cc1c[nH]cn1)NC(=O)[C@H](CCC(N)=O)NC(=O)[C@H](CC(N)=O)NC(=O)[C@@H](N)C(C)C)C(=O)O [VNQHLBGSHL] (H-VNQHL[Cya]GSHL-OH; N-terminus and C-terminus assumed) |
| > 40000 nM | CC(C)C[C@H](NC(=O)[C@H](C)N)C(=O)N[C@@H](CCC(=O)O)C(=O)NCC(=O)N[C@@H](CO)C(=O)N[C@@H](CC(C)C)C(=O)N[C@@H](CCC(N)=O)C(=O)N[C@@H](CCCCN)C(=O)N[C@@H](CCCNC(N)=O)C(=O)NCC(=O)O (H-ALEGSLQK[Cit]G-OH; N-terminus and C-terminus assumed) |

Same assay, conditions: post-translationally modified insulin-derived peptide; radiolabeled ligand competition, purified MHC, two-day incubation, three or more independent experiments; read-out: A*02:01 binding, Modified

| IC50 | Compound |
| --- | --- |
| 5730 nM | ERGYYYTPKT |

Same assay, conditions: read-out: A*02:01 binding (IC50 nM) Modified

| IC50 | Compound |
| --- | --- |
| 70 nM | CC(C)C[C@H](NC(=O)[C@H](C)NC(=O)[C@H](CC(C)C)NC(=O)[C@H](CC(C)C)NC(=O)[C@@H]1CCCN1C(=O)[C@H](CC(C)C)NC(=O)[C@H](CC(C)C)NC(=O)[C@@H](N)CCCNC(N)=O)C(=O)N[C@@H](CC(C)C)C(=O)N[C@@H](C)C(=O)O (H-[Cit]LLPLLALLA-OH) |
| 34500 nM | CC[C@H](C)[C@H](NC(=O)CNC(=O)[C@H](CCCNC(N)=O)NC(=O)[C@H](CCCCN)NC(=O)[C@H](CCC(N)=O)NC(=O)[C@H](CC(C)C)NC(=O)[C@H](CO)NC(=O)CN)C(=O)N[C@H](C(=O)N[C@@H](CCC(=O)O)C(=O)O)C(C)C [GSLQKUGIVE] (H-GSLQK[Cit]GIVE-OH) |

Same assay, conditions: read-out: A*02:01 binding (IC50 nM) WT

| IC50 | Compound |
| --- | --- |
| 11 nM | RLLPLLALLA |
| 32700 nM | GSLQKRGIV |
| 692 nM | HLVEALYLVC |
| 14300 nM | VEALYLVCG |
| 13200 nM | FVNQHLCGSH |

Same assay, conditions: read-out: IC50 nM, target assay A*02:01

| Compound | IC50 |
| --- | --- |
| ALGDLFQSI [reference compound] | 76 nM |
| GIPPAPHGV [reference compound] | 219 nM |
| VIVMLTPLV [reference compound] | 2120 nM |
| SMPQGTFPV [reference compound] | 631 nM |
| ILDKKVEKV [reference compound] | 11200 nM |
| RLLPLWAAL [RLLPLWAAL, reference compound] | 52 nM |
| AVAANIVLTV [reference compound] | 575 nM |
| SLASLLPHV [reference compound] | 9.1 nM |
| VLVEGSTRI [reference compound] | 17200 nM |
| LLIDLTSFL [reference compound] | 8.1 nM |

Other lines, results leading:

| IC50 | Compound |
| --- | --- |
| > 40000 nM | SLQPLALEG [reference compound] |
| 4.2 nM | WLLPLWAAL [WLLPLWAAL, reference compound] |
| 9 nM | VVTGVLVYL [reference compound] |
| 26 nM | FLIVLSVAL [FLIVLSVAL, reference compound] |
| 57 nM | YLLLRVLNI [reference compound] |
| 3690 nM | SLAAGVKLL [reference compound] |
| 16 nM | FLLSLFSLWL [reference compound] |
| 16900 nM | SLYQLENYC [reference compound] |

Same assay, conditions: unmodified (WT) insulin peptide; competition binding assay; a dash indicates IC50 >40,000 nM; read-out: A*02:01 binding (IC50 nM) WT

| IC50 | Compound |
| --- | --- |
| > 40000 nM | ERGFFYTPK [reference compound] |
| > 40000 nM | KTRREAEDL |
| > 40000 nM | FFYTPKTRR |
| > 40000 nM | C[C@@H](O)[C@H](NC(=O)[C@H](CCCCN)NC(=O)[C@@H]1CCCN1C(=O)[C@@H](NC(=O)[C@H](Cc1ccc(O)cc1)NC(=O)[C@H](Cc1ccccc1)NC(=O)[C@H](Cc1ccccc1)NC(=O)CNC(=O)[C@@H](N)CCCNC(=N)N)[C@@H](C)O)C(=O)N[C@@H](CCCNC(=N)N)C(=O)O |
| > 40000 nM | LQKRGIVEQ |
| > 40000 nM | CGERGFFYT |
| > 40000 nM | LVCGERGFF |
| > 40000 nM | C[C@@H](O)[C@H](NC(=O)[C@H](CCCCN)NC(=O)[C@@H]1CCCN1C(=O)[C@@H](NC(=O)[C@H](Cc1ccc(O)cc1)NC(=O)[C@H](Cc1ccccc1)NC(=O)[C@H](Cc1ccccc1)NC(=O)CNC(=O)[C@H](CCCNC(=N)N)NC(=O)[C@@H](N)CCC(=O)O)[C@@H](C)O)C(=O)O |

Same assay, conditions: unmodified (wild type) insulin-derived peptide; radiolabeled ligand competition, purified MHC, two-day incubation, three or more independent experiments; read-out: A*02:01 binding, WT

| IC50 | Compound |
| --- | --- |
| > 40000 nM | C[C@@H](O)[C@H](NC(=O)[C@H](CCCCN)NC(=O)[C@@H]1CCCN1C(=O)[C@@H](NC(=O)[C@H](Cc1ccc(O)cc1)NC(=O)[C@H](Cc1ccccc1)NC(=O)[C@H](Cc1ccccc1)NC(=O)CNC(=O)[C@H](CCCNC(=N)N)NC(=O)[C@@H](N)CCC(=O)O)[C@@H](C)O)C(=O)O |
| 4540 nM | MALWMRLLP |
